“And” between values parts separate entries of the source, which are not always exact repeats. Identical values can stand only once.
Tests used:
Type in all cases: biochemical
c-Src kinase (human) = biological target: T1, c-Src kinase (human) (Homo sapiens, UniProt P12931); assay: c-Src Kinase Assay; conditions: for IC50: human c-Src, 5 μM ATP; for inhibition at 1 µM: test concentration (1) 1 μM, read-out: c-SRC percent inhibition
T1 construct: purchased Upstate Biotechnology, Lake Placid, N.Y
Protocol: […] a 10× kinase buffer (80 mM MOPS at pH 7.0, 2 mM EDTA and 100 mM Magnesium Chloride), ATP (5 μM final from a 10 mM stock), a Cdc2 peptide KVEKIGEGTYGVVYK (100 μM final from a 2.5 mM stock), γ-^33P ATP (10 μCi/μL stock) and water (20 μL/well) was added to each well of a Streptavidin Flashplate.
Test compound in 100% DMSO (0.5 μL) was added to the appropriate wells. Diluted c-Src kinase (human) (Upstate Biotechnology, Lake Placid, N.Y.) (diluted in a buffer consisting of 20 mM MOPS at pH 7.0, 1 mM EDTA, β-mercaptoethanol (0.1%), Brij-35 (0.01%), glycerol (5%), and 1 mg/mL bovine serum albumin) (2.5 μL) was added to the wells to initiate the reactions. The reaction plates were incubated at 30° C. for 40 min. The reaction was terminated by the addition of a 3% phosphoric acid solution (5 μL). The reaction product (10 μL) was spotted onto a P30 filtermat and washed for 5 minutes in phosphoric acid (75 mM). The wash sequence was repeated two more times, followed with one final wash in methanol. The plates were then dried, sealed and read on the TopCount scintillation counter after adding 30 μL scintillation fluid.
The percent inhibitions and IC50 values were derived according to the procedure described in Example 52. For those compounds without an IC50, the percent inhibition results are shown at a test concentration of ^(1)1 μM or ^(2)1.6 μM.

HER-2 = biological target: T2, HER-2 (Homo sapiens, UniProt P04626); assay: HER-2 Kinase Assay; conditions: GST-HER2 kinase, 1 μM ATP
T2 construct: the nucleotides encoding amino acids 679 to 1255 of HER-2; HIS6 with thrombin site (N); purchased Proqinase (Freiburg, Germany)
T2 sequence (P04626 679-1255): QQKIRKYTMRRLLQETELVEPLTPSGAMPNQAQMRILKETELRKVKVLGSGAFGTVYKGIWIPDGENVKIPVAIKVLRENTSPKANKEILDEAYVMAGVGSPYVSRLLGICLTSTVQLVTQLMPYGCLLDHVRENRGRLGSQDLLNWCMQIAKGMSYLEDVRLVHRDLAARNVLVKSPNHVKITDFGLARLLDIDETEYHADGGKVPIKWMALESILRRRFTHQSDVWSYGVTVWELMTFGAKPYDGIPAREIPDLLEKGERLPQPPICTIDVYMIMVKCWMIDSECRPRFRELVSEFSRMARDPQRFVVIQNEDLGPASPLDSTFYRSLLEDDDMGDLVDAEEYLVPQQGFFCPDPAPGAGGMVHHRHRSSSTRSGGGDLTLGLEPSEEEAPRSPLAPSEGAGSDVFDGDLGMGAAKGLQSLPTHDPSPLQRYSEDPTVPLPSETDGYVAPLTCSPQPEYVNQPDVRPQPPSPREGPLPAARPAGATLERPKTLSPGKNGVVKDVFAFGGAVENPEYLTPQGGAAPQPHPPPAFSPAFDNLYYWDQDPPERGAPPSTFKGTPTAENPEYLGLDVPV
Protocol: The HER-2 kinase used was purified at Proqinase (Freiburg, Germany) from a construct that consisted of a fusion of GST (Glutathione-S-Transferase), HIS6-Thrombin and the nucleotides encoding amino acids 679 to 1255 of HER-2.
A mixture of a 10× kinase reaction buffer (600 mM Hepes at pH 7.5, 30 mM Magnesium Chloride, 0.03 mM Sodium Vanadate and 500 μg/mL PEG 20,000), DTT (1.2 mM final from a 10 mM stock), ATP (1 μM from a 10 mM stock), biotinylated polyGluTyr (1.5 ng/μL final from stock of 1 μg/μL prepared by Upstate Biotechnologies, Lake Placid, N.Y.), Manganese Chloride (3 mM final from a 1 M stock), γy-^33P-ATP (10 μCi/μL stock) and water (70 μL/well) was added to each well of a Streptavidin Flashplate (Cat. # SMP103, NEN, Boston, Mass.).
Test compound stock (1 μL) was added to the appropriate wells. Diluted GSTHER2 kinase (6.7 ng/μL diluted into 50 mM Tris-HCl at pH 8.0 and 0.1% bovine serum albumin) (30 μL) was added (total volume of 200 ng/well) to initiate the reactions.
The reaction plates were incubated at 30° C. for 1 hr. The reaction was terminated by aspirating the reaction mixture from the plate wells and washing the wells three times with a 1×PBS stop buffer (300 μL) and 100 mM EDTA. After the final wash, the same stop buffer (200 μL) was again added to the wells. The plates were then sealed and read on the TopCount scintillation counter.
The IC50 was derived according to the procedure described in Example 52. For those compounds without an IC50, the percent inhibition results are shown at a test concentration of 1 μM.

EGFR = biological target: T3, EGFR (Homo sapiens, UniProt P00533); assay: EGFR Kinase Assay (GST-EGFR, 33P-ATP, Streptavidin Flashplate); conditions: for IC50: GST-EGFR intracellular portion, 5 μM ATP
T3 construct: started at nucleotide 2189 (corresponding to amino acid 667) and ended at the termination codon; made in house; host or cells: Sf9 insect cells (baculovirus)
T3 sequence (P00533 667-1210 limits assumed): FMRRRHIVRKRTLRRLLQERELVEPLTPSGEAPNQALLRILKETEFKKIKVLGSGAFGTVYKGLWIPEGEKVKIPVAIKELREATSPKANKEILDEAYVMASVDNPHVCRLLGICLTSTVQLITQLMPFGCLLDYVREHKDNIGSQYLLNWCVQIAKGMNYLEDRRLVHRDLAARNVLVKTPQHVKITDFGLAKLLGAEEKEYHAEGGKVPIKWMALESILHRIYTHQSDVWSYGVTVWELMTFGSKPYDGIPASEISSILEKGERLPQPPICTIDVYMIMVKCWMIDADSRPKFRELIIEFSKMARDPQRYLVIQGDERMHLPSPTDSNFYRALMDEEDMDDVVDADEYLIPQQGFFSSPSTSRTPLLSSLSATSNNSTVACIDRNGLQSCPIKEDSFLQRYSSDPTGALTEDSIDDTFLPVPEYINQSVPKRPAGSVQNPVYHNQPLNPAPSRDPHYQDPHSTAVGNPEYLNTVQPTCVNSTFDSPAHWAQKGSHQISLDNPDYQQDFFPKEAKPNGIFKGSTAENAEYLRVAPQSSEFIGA
Description: The EGFR kinase used was a fusion of Glutathione-S-Transferase (GST) and a PCR amplified intracellular portion of EGFR (NM_005228). The intracellular portion of EGFR started at nucleotide 2189 (corresponding to amino acid 667) and ended at the termination codon. The portion was PCR amplified with primers that added the lambda attB sequences to each end, recombined into an entry vector, then into a GST destination vector (as described in Gateway Technologies Manual by Invitrogen Corporation, Carlsbad, Calif.).
The destination vector was recombined in the DH10BAC strain of bacteria to produce a bacmid. The bacmid was transfected into Sf 9 cells and the supernatant containing the baculovirus was collected. The GSTEGFR protein was purified using large cultures of Sf 9 cells infected with stock virus. After an appropriate period of time, the cells were collected and lysed. The GSTEGFR was then purified from the lysate on Glutathione-Sepharose columns (as described by Amersham Biosciences, Buckinghamshire, United Kingdom).
The EGFR substrate was prepared by biotinylating polyGluTyr (128 mg) (Sigma, St. Louis, Mo.) in a 1×PBS buffer incubated together with a 12-fold molar excess of Sulfo-NHS-LC-Biotin on ice for at least 2 hrs. The free biotin was separated from the biotinylated polyGluTyr on a gel filtration column.
A mixture of a 10× kinase buffer (500 mM Tris at pH 8.0, 100 mM Magnesium Chloride and 1 mM Sodium Vanadate), DTT (1 mM final from 500 mM stock), ATP (5 μM final from 10 mM stock), biotinylated polyGluTyr (10 μg/μL stock), γ-^33P ATP (10 μCi/μL stock) and water was added to each well (90 μL/well) of a Streptavidin Flashplate (Perkin Elmer, Wellesley, Mass.).
Test compound in 100% DMSO (2 μL) was added to the appropriate wells. Diluted GSTEGFR (1:300 dilution in 50 mM Tris at pH 8.0 and 0.1% bovine serum albumin) (10 μL) was added to the wells to initiate the reactions.
The plates were incubated at 30° C. for 1 hr with shaking. The reacted contents were removed and the plates were sequentially washed three times with a 1×PBS stop buffer (300 μL without Magnesium and Calcium) and 100 mM EDTA. After the final wash, the same stop buffer (200 μL) was added to the wells. The plates were then sealed and read on the TopCount scintillation counter.
Test compounds were assayed in triplicate at 16 concentrations at half-log dilutions starting at 200 uM. A maximum and minimum signal for the assay was determined on each plate. The percent inhibition of a test compound was calculated accord to the formula
For a series of test concentrations, the IC50 was derived by graphing percent inhibition against the log of the concentrations tested for a given compound. For those compounds without an IC50, the percent inhibition results are shown at a test concentration of 2 μM.

Lyn kinase (human) = biological target: T4, Lyn kinase (human) (Homo sapiens, UniProt P07948); assay: Lyn Kinase Assay (h); conditions: for IC50: (h) human Lyn, 5 μM ATP; for inhibition at 1 µM: test concentration (1) 1 μM
T4 construct: purchased Upstate Biotechnology, Lake Placid, N.Y
T4 sequence (P07948 whole entry): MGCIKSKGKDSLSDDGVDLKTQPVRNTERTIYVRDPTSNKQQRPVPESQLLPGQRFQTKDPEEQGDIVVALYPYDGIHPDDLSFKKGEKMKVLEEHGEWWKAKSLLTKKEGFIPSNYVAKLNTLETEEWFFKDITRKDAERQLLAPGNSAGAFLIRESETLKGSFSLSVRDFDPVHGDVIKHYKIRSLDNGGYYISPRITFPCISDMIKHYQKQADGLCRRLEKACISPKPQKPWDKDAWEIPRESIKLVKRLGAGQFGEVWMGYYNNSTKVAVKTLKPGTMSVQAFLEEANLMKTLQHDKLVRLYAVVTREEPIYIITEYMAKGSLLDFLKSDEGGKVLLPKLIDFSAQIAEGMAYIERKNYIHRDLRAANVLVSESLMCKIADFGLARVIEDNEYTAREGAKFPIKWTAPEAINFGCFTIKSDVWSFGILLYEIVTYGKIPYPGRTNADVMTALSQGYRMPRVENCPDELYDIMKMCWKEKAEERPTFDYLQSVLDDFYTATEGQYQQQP
Protocol: A mixture of a 10× kinase buffer (500 mM MOPS at pH 7.5, 1 mM EGTA, 1 mM Sodium Vanadate, 1% β-mercaptoethanol and 100 mM Magnesium Acetate), ATP (5 μM final from a 10 mM stock), polyGluTyr (0.1 mg/mL final from a 1 mg/mL stock), γ-^33P ATP (10 μCi/μL stock) and water (20 μL/well) was added to each well of a Streptavidin Flashplate.
Test compound in 100% DMSO (0.5 μL) was added to the appropriate wells. Diluted Lyn kinase (human) (Upstate Biotechnology, Lake Placid, N.Y.) (diluted in a buffer consisting of 50 mM Tris at pH 7.5, 0.1 mM EGTA, Sodium Vanadate (0.1 mM), β-mercaptoethanol (0.1%) and 1 mg/mL bovine serum albumin) (2.5 μL) was added to the wells to initiate the reactions.
The reaction plates were incubated at 30° C. for 40 min. The reaction was terminated by the addition of a 3% phosphoric acid solution (5 μL). The reaction product (10 μL) was spotted onto a P30 filtermat and washed for 5 minutes in phosphoric acid (75 mM). The wash sequence was repeated two more times, followed with one final wash in methanol. The plates were then dried, sealed and read on the TopCount scintillation counter after adding 30 μL scintillation fluid.
The percent inhibitions and IC50 values were derived according to the procedure described in Example 52. For those compounds without an IC50, the percent inhibition results are shown at a test concentration of ^(1) 1 μM or ^(2) 1.6 μM.

LYN (m) = LYN (m) (Mus musculus, UniProt P25911); assay: Lyn Kinase Assay (m); conditions: for inhibition at 1 µM: test concentration (1) 1 μM, read-out: LYN percent inhibition (m)
LYN (m), sequence (P25911 whole entry): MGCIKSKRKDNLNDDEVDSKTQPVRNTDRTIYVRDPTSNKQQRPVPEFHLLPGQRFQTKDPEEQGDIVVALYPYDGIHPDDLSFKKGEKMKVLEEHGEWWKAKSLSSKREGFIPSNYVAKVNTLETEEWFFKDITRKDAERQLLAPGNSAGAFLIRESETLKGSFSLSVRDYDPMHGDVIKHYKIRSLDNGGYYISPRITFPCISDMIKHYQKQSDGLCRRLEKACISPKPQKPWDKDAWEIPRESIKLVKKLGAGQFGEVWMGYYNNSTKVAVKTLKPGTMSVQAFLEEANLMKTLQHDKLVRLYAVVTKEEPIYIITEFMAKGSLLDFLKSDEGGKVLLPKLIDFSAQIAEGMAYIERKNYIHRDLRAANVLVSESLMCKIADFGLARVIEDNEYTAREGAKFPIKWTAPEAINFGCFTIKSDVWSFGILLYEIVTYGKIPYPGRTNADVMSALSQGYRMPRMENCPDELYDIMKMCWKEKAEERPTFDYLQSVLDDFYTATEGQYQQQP

[1] = (h), read-out: LYN percent inhibition (h)

T1 sequence (P12931 whole entry): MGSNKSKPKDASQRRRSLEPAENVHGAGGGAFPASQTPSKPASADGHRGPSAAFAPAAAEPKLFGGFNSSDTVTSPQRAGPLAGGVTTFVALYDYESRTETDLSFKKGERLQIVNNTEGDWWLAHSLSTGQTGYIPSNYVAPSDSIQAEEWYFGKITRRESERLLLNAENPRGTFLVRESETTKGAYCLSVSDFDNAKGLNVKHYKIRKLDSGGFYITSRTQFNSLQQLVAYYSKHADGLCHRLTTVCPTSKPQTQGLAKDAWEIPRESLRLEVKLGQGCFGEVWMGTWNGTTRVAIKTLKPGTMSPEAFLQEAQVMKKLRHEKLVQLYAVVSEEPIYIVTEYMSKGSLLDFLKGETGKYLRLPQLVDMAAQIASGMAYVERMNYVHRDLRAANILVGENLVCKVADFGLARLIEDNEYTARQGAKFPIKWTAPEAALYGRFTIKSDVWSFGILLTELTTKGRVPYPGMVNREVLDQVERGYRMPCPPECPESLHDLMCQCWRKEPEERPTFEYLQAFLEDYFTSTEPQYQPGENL

| IC50 (c-Src kinase (human)) [nM] | IC50 (HER-2) [nM] | IC50 (EGFR) | IC50 (Lyn kinase (human)) [nM] | IC50 (LYN (m)) [nM] | c-SRC percent inhibition (c-Src kinase (human); test concentration not marked (1 μM or 1.6 μM)) [%] | inhibition at 2 µM (EGFR; test concentration of 2 μM, read-out: EGFR percent inhibition) [%] | inhibition at 1.6 µM (Lyn kinase (human); (h), test concentration (2) 1.6 μM, read-out: LYN percent inhibition (h)) [%] | inhibition at 1 µM (c-Src kinase (human)) [%] | inhibition at 1 µM (Lyn kinase (human); [1]) [%] | inhibition at 1 µM (LYN (m)) [%] | SMILES |
| --- | --- | --- | --- | --- | --- | --- | --- | --- | --- | --- | --- |
| 1410 | 92700 | 43.3 nM | 224 | 790 | – | – | – | – | – | – | CN(C)Cc1ccc(Nc2nc3ncc(C#N)c(Nc4cccc5c4OC(F)(F)O5)c3s2)cc1 [Cpd 25, 7-(2,2-difluoro-benzo[1,3]dioxol-4-ylamino)-2-(4-dimethylaminomethyl-phenylamino)-thiazolo[4,5-b]pyridine-6-carbonitrile] |
| – | > 100000 | – | – | – | 0 | 0 | 37 | – | – | – | CN1CCN(Cc2ccc(Nc3nc4ncc(C#N)c(Nc5ccc(Oc6ccccc6)cc5)c4s3)cc2)CC1 [Cpd 51, 2-[4-(4-methyl-piperazin-1-ylmethyl)-phenylamino]-7-(4-phenoxy-phenylamino)-thiazolo[4,5-b]pyridine-6-carbonitrile] |
| 11 | – | 378 nM and 941 nM | 11 | 9 | – | – | – | – | – | – | N#Cc1cnc2nc(Nc3ccc(CN4CCOCC4)cc3)sc2c1Nc1c(Cl)ccc2c1OCO2 [Cpd 20, 7-(5-chloro-benzo[1,3]dioxol-4-ylamino)-2-(4-morpholin-4-ylmethyl-phenylamino)-thiazolo[4,5-b]pyridine-6-carbonitrile] |
| – | – | 20.4 nM | – | – | – | – | – | -2 | 8 | 42 | C#Cc1cccc(Nc2c(C#N)cnc3nc(Nc4ccc(S(=O)(=O)NCCCN(C)C)cc4)sc23)c1 [Cpd 23, 4-[6-cyano-7-(3-ethynyl-phenylamino)-thiazolo[4,5-b]pyridin-2-ylamino]-N-(3-dimethylamino-propyl)-benzenesulfonamide] |
| – | 2060 | 33.3 nM | – | – | – | – | – | 15 | -5 | 10 | N#Cc1cnc2nc(Nc3ccc(CN4CCCC4)cc3)sc2c1Nc1ccc(OCc2cccc(F)c2)c(Cl)c1 [Cpd 24, 7-[3-chloro-4-(3-fluoro-benzyloxy)-phenylamino]-2-(4-pyrrolidin-1-ylmethyl-phenylamino)-thiazolo[4,5-b]pyridine-6-carbonitrile] |

From patent US7659284B2, “Thiazolopyridine kinase inhibitors” (Janssen Pharmaceutica NV, priority 2004, dated 2010)
